Laboratory results published in US12222310B2, “Magnesium ion selective membranes” (Siemens Healthcare Diagnostics Inc., priority 2015, dated 2025).

Assay: plasticizer lost from sensor membrane over use life, remaining plasticizer determined by UPLC
Format: physicochemical
Details: membranes in RAPIDPoint systems, at least 25 days, about 10 whole blood samples per business day
Experimental: Membrane formulations were prepared by using NPOE or ETH 217 plasticizers with polyvinylchloride, magnesium ionophore and lipohilic ion exchange salt. The materials were dissolved in a suitable organic solvent at a solids ratio of 10%. The solutions were deposited on the sensor substrates and the solvent allowed to evaporate yielding the formed membranes. The formulations were optimized to yield membranes with the best obtainable magnesium selectivity over calcium and were generally at least greater than 1:1.
Sensors were incorporated into RAPIDPoint systems (available from Siemens Healthcare Diagnostics Inc.) and tested over at least 25 days. During this time, sensors were calibrated with magnesium containing reagents and exposed to whole blood samples at approximately 10 per business day. In addition, magnesium containing quality control solutions were also run across least 25 days at least once every day. After testing the membranes were removed from the sensor substrate and the amount of remaining plasticizer was determined by UPLC and so the amount of plasticizer lost over time was calculated.

% by wt Plasticizer Lost: 3.9%
SMILES: CCCCCCCCCCCCOc1ccccc1[N+](=O)[O-] [ETH 217, 1-dodecyloxy-2-nitrobenzene]
